Calls of active or inactive are those of the source. The rule behind the calls is not given here.
System: rodent carcinogenicity bioassays, tumor incidence
Assay: CCRIS carcinogenicity studies
Method in brief: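 Archive of carcinogenicity, mutagenicity, tumor promotion and tumor inhibition results drawn from journals, NCI reports and other sources, expert-reviewed; covers 1985-2011 and is no longer updated.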

`CN(C)[C@@H]1C(=O)C(C(N)=O)=C(O)[C@@]2(O)C(=O)C3=C(O)c4c(O)cccc4[C@@](C)(O)[C@H]3C[C@@H]12` was tested, and the carcinogen call (Species: MOUSE, Strain/Sex: B6C3F1/FEMALE, Route: GAVAGE, Dose: 0, 12500, 25000 PPM IN FEED FOR 103 WK (STUDY DURATION: 104 WK), Dose: 0, 12500, 25000 PPM IN FEED FOR 103 WK (STUDY DURATION: 104 WK)) was “inactive; negative”, the carcinogen call (Species: MOUSE, Strain/Sex: B6C3F1/FEMALE, Route: ORAL, Dose: 0, 12500, 25000 PPM IN DIET FOR 103 WK (STUDY DURATION: 103 WK), Dose: 0, 12500, 25000 PPM IN DIET FOR 103 WK (STUDY DURATION: 103 WK)) was “inactive; negative” and the carcinogen call (Species: MOUSE, Strain/Sex: B6C3F1/MALE, Route: ORAL, Dose: 0, 12500, 25000 PPM IN DIET FOR 103 WK (STUDY DURATION: 103 WK), Dose: 0, 12500, 25000 PPM IN DIET FOR 103 WK (STUDY DURATION: 103 WK)) was “inactive; negative”. For the same compound, the carcinogen call (Species: MOUSE, Strain/Sex: B6C3F1/MALE, Route: ORAL, Dose: 0, 12500, 25000 PPM IN FEED FOR 103 WK (STUDY DURATION: 104 WK), Dose: 0, 12500, 25000 PPM IN FEED FOR 103 WK (STUDY DURATION: 104 WK)) was “inactive; negative”, the carcinogen call (Species: RAT, Strain/Sex: F344/FEMALE, Route: ORAL, Dose: 0, 12500, 25000 PPM IN DIET FOR 103 WK (STUDY DURATION: 103 WK), Dose: 0, 12500, 25000 PPM IN DIET FOR 103 WK (STUDY DURATION: 103 WK)) was “inactive; negative” and the carcinogen call (Species: RAT, Strain/Sex: F344/FEMALE, Route: ORAL, Dose: 0, 12500, 25000 PPM IN FEED FOR 103 WK (STUDY DURATION: 104 WK), Dose: 0, 12500, 25000 PPM IN FEED FOR 103 WK (STUDY DURATION: 104 WK)) was “inactive; negative”. For the same compound, the carcinogen call (Species: RAT, Strain/Sex: F344/MALE, Route: ORAL, Dose: 0, 12500, 25000 PPM IN DIET FOR 103 WK (STUDY DURATION: 103 WK), Dose: 0, 12500, 25000 PPM IN DIET FOR 103 WK (STUDY DURATION: 103 WK)) was “inactive; negative” and the carcinogen call (Species: RAT, Strain/Sex: F344/MALE, Route: ORAL, Dose: 0, 12500, 25000 PPM IN FEED FOR 103 WK (STUDY DURATION: 104 WK), Dose: 0, 12500, 25000 PPM IN FEED FOR 103 WK (STUDY DURATION: 104 WK)) was “inactive; negative”.

In the case of `O=[N+]([O-])c1c2ccc3ccccc3c2cc2ccc3ccccc3c12`, the carcinogen call (Species: MOUSE, Strain/Sex: B6C3F1/MALE, Route: INTRAPERITONEAL, Dose: 0, 400 NMOL IN 35 µL DMSO (TOTAL DOSE) ADMINISTERED IN DOSES OF 1/7, 2/7, AND 4/7 OF THE TOTAL DOSE ON DAYS 1,8, AND 15, Tumor Site: Type of Lesion: LIVER :ADENOMA) is reported as “active; positive”.

With `CC1CO1` (configuration not stated) the carcinogen call (Species: MOUSE, Strain/Sex: B6C3F1/FEMALE, Route: INHALATION, Dose: 0, 200, 400 PPM 6 HR/D, 5 D/WK FOR 103 WK, Dose: 0, 200, 400 PPM 6 HR/D, 5 D/WK FOR 103 WK, Tumor Site: Type of Lesion: NASAL TURBINATES: HEMANGIOMA OR HEMANGIOSARCOMA) was “active; positive”, the carcinogen call (Species: MOUSE, Strain/Sex: B6C3F1/MALE, Route: INHALATION, Dose: 0, 200, 400 PPM 6 HR/D, 5 D/WK FOR 103 WK, Dose: 0, 200, 400 PPM 6 HR/D, 5 D/WK FOR 103 WK, Tumor Site: Type of Lesion: NASAL TURBINATES: HEMANGIOMA, HEMANGIOSARCOMA) was “active; positive” and the carcinogen call (Species: MOUSE, Strain/Sex: NMRI/FEMALE, Route: SUBCUTANEOUS, Dose: 0, 0.1, 0.3, 1, 2.5 MG/MOUSE IN TRICAPRYLIN 1/WK FOR 95 WK (STUDY DURATION: 110 WK), Dose: 0, 0.1, 0.3, 1, 2.5 MG/MOUSE IN TRICAPRYLIN 1/WK FOR 95 WK (STUDY DURATION: 110 WK), Tumor Site: Type of Lesion: INJECTION SITE: TUMOR) was “active; positive”. For the same compound, the carcinogen call (Species: RAT, Route: SUBCUTANEOUS, Tumor Site: Type of Lesion: INJECTION SITE) was “active; positive”, the carcinogen call (Species: RAT, Strain/Sex: F344/FEMALE, Route: INHALATION, Dose: 0, 200, 400 PPM 6 HR/D, 5 D/WK FOR 103 WK, Dose: 0, 200, 400 PPM 6 HR/D, 5 D/WK FOR 103 WK, Tumor Site: Type of Lesion: NASAL TURBINATES: PAPILLARY ADENOMA) was “active; positive” and the carcinogen call (Species: RAT, Strain/Sex: F344/MALE, Route: INHALATION, Dose: 0, 100, 300 PPM IN AIR 7 HR/D 5 D/WK FOR 104 WK (STUDY DURATION: 2 YR), Dose: 0, 100, 300 PPM IN AIR 7 HR/D 5 D/WK FOR 104 WK (STUDY DURATION: 2 YR), Tumor Site: Type of Lesion: ADRENAL GLAND: PHEOCHROMOCYTOMA, PITUITARY GLAND: ADENOMA) was “active; positive”. For the same compound, the carcinogen call (Species: RAT, Strain/Sex: F344/MALE, Route: INHALATION, Dose: 0, 200, 400 PPM 6 HR/D, 5 D/WK FOR 103 WK, Dose: 0, 200, 400 PPM 6 HR/D, 5 D/WK FOR 103 WK, Tumor Site: Type of Lesion: NASAL TURBINATES: PAPILLARY ADENOMA) was “active; positive”, the carcinogen call (Species: RAT, Strain/Sex: SPRAGUE-DAWLEY/FEMALE, Route: GAVAGE, Dose: 15, 60 MG/KG IN SALAD OIL 2/WK FOR UP TO 150 WK, Tumor Site: Type of Lesion: FORESTOMACH: SQUAMOUS CELL CARCINOMA) was “active; positive” and the carcinogen call (Species: RAT, Strain/Sex: SPRAGUE-DAWLEY/MALE, Route: INHALATION, Dose: 0, 435, 870, 1740 PPM 6 HR/D 5 D/WK FOR 30 D EXCEPT 1740 PPM GROUP WHICH WAS EXPOSED FOR 5 D (STUDY DURATION: LIFETIME), Dose: 0, 435, 870, 1740 PPM 6 HR/D 5 D/WK FOR 30 D EXCEPT 1740 PPM GROUP WHICH WAS EXPOSED FOR 5 D (STUDY DURATION: LIFETIME)) was “inactive; negative”.

For `C=CCN(N=O)C(N)=O`, the carcinogen call (Species: RAT, Strain/Sex: F344/FEMALE, Route: GAVAGE, Dose: 0, 13 MG/ML (TOTAL DOSE 0; 1.2 MMOL) IN 2 ML ETHYL ACETATE AND CORN OIL (1:2) 2/WK FOR 30 WK (STUDY DURATION: LIFETIME), Dose: 0, 13 MG/ML (TOTAL DOSE 0; 1.2 MMOL) IN 2 ML ETHYL ACETATE AND CORN OIL (1:2) 2/WK FOR 30 WK (STUDY DURATION: LIFETIME), Tumor Site: Type of Lesion: FORESTOMACH: SQUAMOUS CELL CARCINOMA, MAMMARY GLAND: TUMOR) was “active; positive”, the carcinogen call (Species: RAT, Strain/Sex: F344/FEMALE, Route: GAVAGE, Dose: 0, 13 MG/ML IN 0.2 ML ETHYL ACETATE AND CORN OIL 2/WK FOR 30 WK (STUDY DURATION: LIFESPAN), Tumor Site: Type of Lesion: FORESTOMACH: TUMOR, MAMMARY GLAND: TUMOR) was “active; positive” and the carcinogen call (Species: RAT, Strain/Sex: F344/MALE, Route: GAVAGE, Dose: 0, 13 MG/ML (TOTAL DOSE 0; 1.2 MMOL) IN 2 ML ETHYL ACETATE AND CORN OIL (1:2) 2/WK FOR 30 WK (STUDY DURATION: LIFETIME), Dose: 0, 13 MG/ML (TOTAL DOSE 0; 1.2 MMOL) IN 2 ML ETHYL ACETATE AND CORN OIL (1:2) 2/WK FOR 30 WK (STUDY DURATION: LIFETIME), Tumor Site: Type of Lesion: FORESTOMACH: SQUAMOUS CELL CARCINOMA, LUNG: TUMOR, COLON: TUMOR, ZYMBAL GLAND: TUMOR, Tumor Site: Type of Lesion: FORESTOMACH: SQUAMOUS CELL CARCINOMA, LUNG: TUMOR, COLON: TUMOR, ZYMBAL GLAND: TUMOR) was “active; positive”. The carcinogen call (Species: RAT, Strain/Sex: F344/MALE, Route: GAVAGE, Dose: 0, 13 MG/ML IN 0.2 ML ETHYL ACETATE AND CORN OIL 2/WK FOR 30 WK (STUDY DURATION: LIFESPAN), Tumor Site: Type of Lesion: FORESTOMACH: TUMOR, LUNG: COLON: TUMOR, ZYMBAL GLAND: TUMOR, Tumor Site: Type of Lesion: FORESTOMACH: TUMOR, LUNG: COLON: TUMOR, ZYMBAL GLAND: TUMOR) was “active; positive”.

From PubChem BioAssay AID1259411 (Chemical Carcinogenesis Research Information System (CCRIS), 2018)
